Measured values: PubChem BioAssay (NCI)
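These data come from cells grown in 96-well plates and exposed to compound for 48 hours at five concentrations. GI50 is the concentration that inhibits growth by half. TGI is the concentration that stops growth completely.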

Assays:
Assay in all cases: inhibition of tumour cell growth, NCI panel, 48 h
MDA-MB-435 = test system: MDA-MB-435
UO-31 renal = test system: UO-31 renal
SK-OV-3 ovarian = test system: SK-OV-3 ovarian
SR leukemia = test system: SR leukemia
SNB-75 CNS = test system: SNB-75 CNS
MDA-MB-231 breast = test system: MDA-MB-231 breast
HOP-92 NSCLC = test system: HOP-92 NSCLC
CAKI-1 renal = test system: CAKI-1 renal
DU-145 prostate = test system: DU-145 prostate
OVCAR-5 ovarian = test system: OVCAR-5 ovarian
OVCAR-3 ovarian = test system: OVCAR-3 ovarian
MCF7 breast = test system: MCF7 breast
A498 renal = test system: A498 renal
HCC-2998 colon = test system: HCC-2998 colon
NCI-H460 lung = test system: NCI-H460 lung
U251 CNS = test system: U251 CNS
UACC-62 melanoma = test system: UACC-62 melanoma
LOX IMVI melanoma = test system: LOX IMVI melanoma
T-47D breast = test system: T-47D breast
RPMI-8226 leukemia = test system: RPMI-8226 leukemia
SF-268 CNS = test system: SF-268 CNS
UACC-257 melanoma = test system: UACC-257 melanoma
K-562 leukemia = test system: K-562 leukemia
HCT-116 colon = test system: HCT-116 colon
M14 melanoma = test system: M14 melanoma
786-0 renal = test system: 786-0 renal
MOLT-4 leukemia = test system: MOLT-4 leukemia
HCT-15 colon = test system: HCT-15 colon
ACHN renal = test system: ACHN renal
HOP-62 NSCLC = test system: HOP-62 NSCLC
PC-3 prostate = test system: PC-3 prostate
NCI-H522 lung = test system: NCI-H522 lung
RXF 393 renal = test system: RXF 393 renal
NCI-H226 lung = test system: NCI-H226 lung
SNB-19 CNS = test system: SNB-19 CNS
NCI-H23 lung = test system: NCI-H23 lung
SK-MEL-5 melanoma = test system: SK-MEL-5 melanoma
NCI/ADR-RES ovarian = test system: NCI/ADR-RES ovarian
SF-295 CNS = test system: SF-295 CNS
OVCAR-8 ovarian = test system: OVCAR-8 ovarian
COLO 205 colon = test system: COLO 205 colon
SN12C renal = test system: SN12C renal
SW-620 colon = test system: SW-620 colon
KM12 colon = test system: KM12 colon
SK-MEL-2 melanoma = test system: SK-MEL-2 melanoma
SF-539 CNS = test system: SF-539 CNS
HL-60(TB) leukemia = test system: HL-60(TB) leukemia
HS 578T breast = test system: HS 578T breast
HT29 colon = test system: HT29 colon
EKVX NSCLC = test system: EKVX NSCLC
IGROV1 ovarian = test system: IGROV1 ovarian
A549 NSCLC = test system: A549 NSCLC
TK-10 renal = test system: TK-10 renal

Q: How did the GI50 (MDA-MB-435) turn out when `N=C(N)c1ccc(-c2ccc(-c3ccc(Cl)cc3Cl)o2)nc1` was run?
A: 1.72 µM

Q: And the TGI (MDA-MB-435)?
A: 3.1 µM

Q: And the GI50 (UO-31 renal)?
A: 1.56 µM

Q: And the TGI (UO-31 renal)?
A: 2.92 µM

Q: And the GI50 (SK-OV-3 ovarian)?
A: 1.77 µM

Q: What about the TGI (SK-OV-3 ovarian) of the same compound?
A: 3.52 µM

Q: And the GI50 (SR leukemia)?
A: 0.311 µM

Q: What about the TGI (SR leukemia) of the same compound?
A: 1.43 µM

Q: What about the GI50 (SNB-75 CNS) of the same compound?
A: 1.46 µM

Q: What about the TGI (SNB-75 CNS) of the same compound?
A: 2.78 µM

Q: And the GI50 (MDA-MB-231 breast)?
A: 1.64 µM

Q: What about the TGI (MDA-MB-231 breast) of the same compound?
A: 3.16 µM

Q: What about the GI50 (HOP-92 NSCLC) of the same compound?
A: 1.44 µM

Q: What about the TGI (HOP-92 NSCLC) of the same compound?
A: 2.9 µM

Q: What about the GI50 (CAKI-1 renal) of the same compound?
A: 1.52 µM

Q: What about the TGI (CAKI-1 renal) of the same compound?
A: 2.96 µM

Q: And the GI50 (DU-145 prostate)?
A: 1.78 µM

Q: What about the TGI (DU-145 prostate) of the same compound?
A: 3.21 µM

Q: What about the GI50 (OVCAR-5 ovarian) of the same compound?
A: 1.64 µM

Q: What about the TGI (OVCAR-5 ovarian) of the same compound?
A: 3.05 µM

Q: And the GI50 (OVCAR-3 ovarian)?
A: 1.81 µM

Q: What about the TGI (OVCAR-3 ovarian) of the same compound?
A: 3.23 µM

Q: `COc1cc(/C=C2\C[C@H]3[C@@H]4CC=C5C[C@@H](O)CC[C@]5(C)[C@H]4CC[C@]3(C)[C@H]2O)ccc1OCCN1CCCC1` was tested. Which GI50 (MCF7 breast) did it give?
A: 16.4 µM

Q: What about the TGI (MCF7 breast) of the same compound?
A: > 50 µM

Q: And the GI50 (A498 renal)?
A: 25.1 µM

Q: What about the TGI (A498 renal) of the same compound?
A: > 50 µM

Q: What about the GI50 (HCC-2998 colon) of the same compound?
A: 10.1 µM

Q: What about the TGI (HCC-2998 colon) of the same compound?
A: 20.6 µM

Q: What about the GI50 (NCI-H460 lung) of the same compound?
A: 13.5 µM

Q: What about the TGI (NCI-H460 lung) of the same compound?
A: 36.2 µM

Q: What about the GI50 (U251 CNS) of the same compound?
A: 12.8 µM

Q: And the TGI (U251 CNS)?
A: 40.4 µM

Q: What about the GI50 (UACC-62 melanoma) of the same compound?
A: 8.9 µM

Q: What about the TGI (UACC-62 melanoma) of the same compound?
A: 16.9 µM

Q: What about the GI50 (MDA-MB-435) of the same compound?
A: 10.7 µM

Q: And the TGI (MDA-MB-435)?
A: 28.2 µM

Q: What about the GI50 (LOX IMVI melanoma) of the same compound?
A: 17.9 µM

Q: What about the TGI (LOX IMVI melanoma) of the same compound?
A: > 50 µM

Q: And the GI50 (UO-31 renal)?
A: 10.3 µM

Q: And the TGI (UO-31 renal)?
A: 22.4 µM

Q: What about the GI50 (T-47D breast) of the same compound?
A: 19.9 µM

Q: And the TGI (T-47D breast)?
A: > 50 µM

Q: What about the GI50 (RPMI-8226 leukemia) of the same compound?
A: 5.53 µM

Q: What about the TGI (RPMI-8226 leukemia) of the same compound?
A: 25.5 µM

Q: What about the GI50 (SF-268 CNS) of the same compound?
A: 9.72 µM

Q: And the TGI (SF-268 CNS)?
A: 22.8 µM

Q: And the GI50 (UACC-257 melanoma)?
A: 9.89 µM

Q: And the TGI (UACC-257 melanoma)?
A: 19.8 µM

Q: What about the GI50 (K-562 leukemia) of the same compound?
A: 6.86 µM

Q: What about the TGI (K-562 leukemia) of the same compound?
A: 16.5 µM

Q: What about the GI50 (HCT-116 colon) of the same compound?
A: 8.27 µM

Q: And the TGI (HCT-116 colon)?
A: 24.8 µM

Q: What about the GI50 (M14 melanoma) of the same compound?
A: 8.16 µM

Q: What about the TGI (M14 melanoma) of the same compound?
A: 18.3 µM

Q: And the GI50 (786-0 renal)?
A: 6.16 µM

Q: And the TGI (786-0 renal)?
A: 16 µM

Q: What about the GI50 (MOLT-4 leukemia) of the same compound?
A: 2.46 µM

Q: What about the TGI (MOLT-4 leukemia) of the same compound?
A: 11.3 µM

Q: What about the GI50 (HCT-15 colon) of the same compound?
A: 11.8 µM

Q: And the TGI (HCT-15 colon)?
A: 38 µM

Q: What about the GI50 (ACHN renal) of the same compound?
A: 8.38 µM

Q: And the TGI (ACHN renal)?
A: 16.9 µM

Q: And the GI50 (MDA-MB-231 breast)?
A: 11.7 µM

Q: And the TGI (MDA-MB-231 breast)?
A: 23 µM

Q: What about the GI50 (HOP-92 NSCLC) of the same compound?
A: 8.26 µM

Q: What about the TGI (HOP-92 NSCLC) of the same compound?
A: 17.1 µM

Q: And the GI50 (CAKI-1 renal)?
A: 10.2 µM

Q: What about the TGI (CAKI-1 renal) of the same compound?
A: 22.1 µM

Q: What about the GI50 (HOP-62 NSCLC) of the same compound?
A: 9.67 µM

Q: What about the TGI (HOP-62 NSCLC) of the same compound?
A: 20.8 µM

Q: And the GI50 (PC-3 prostate)?
A: 7.4 µM

Q: And the TGI (PC-3 prostate)?
A: 15.1 µM

Q: And the GI50 (NCI-H522 lung)?
A: 18 µM

Q: And the TGI (NCI-H522 lung)?
A: > 50 µM

Q: What about the GI50 (RXF 393 renal) of the same compound?
A: 9.81 µM

Q: And the TGI (RXF 393 renal)?
A: 23.9 µM

Q: What about the GI50 (NCI-H226 lung) of the same compound?
A: 9.55 µM

Q: What about the TGI (NCI-H226 lung) of the same compound?
A: 22.3 µM

Q: What about the GI50 (SNB-19 CNS) of the same compound?
A: 11.8 µM

Q: And the TGI (SNB-19 CNS)?
A: 31.3 µM

Q: And the GI50 (NCI-H23 lung)?
A: 11.5 µM

Q: What about the TGI (NCI-H23 lung) of the same compound?
A: 26 µM

Q: What about the GI50 (SK-MEL-5 melanoma) of the same compound?
A: 9.58 µM

Q: What about the TGI (SK-MEL-5 melanoma) of the same compound?
A: 23.6 µM

Q: What about the GI50 (NCI/ADR-RES ovarian) of the same compound?
A: 12.6 µM

Q: And the TGI (NCI/ADR-RES ovarian)?
A: 34.7 µM

Q: And the GI50 (SF-295 CNS)?
A: 13.6 µM

Q: And the TGI (SF-295 CNS)?
A: 37 µM

Q: And the GI50 (OVCAR-8 ovarian)?
A: 13.5 µM

Q: And the TGI (OVCAR-8 ovarian)?
A: 27.2 µM

Q: And the GI50 (COLO 205 colon)?
A: 12.9 µM

Q: What about the TGI (COLO 205 colon) of the same compound?
A: > 50 µM

Q: And the GI50 (SN12C renal)?
A: 8.48 µM

Q: What about the TGI (SN12C renal) of the same compound?
A: 17.9 µM

Q: What about the GI50 (SW-620 colon) of the same compound?
A: 23.7 µM

Q: And the TGI (SW-620 colon)?
A: > 50 µM

Q: What about the GI50 (KM12 colon) of the same compound?
A: 9.69 µM

Q: And the TGI (KM12 colon)?
A: 19.8 µM

Q: And the GI50 (SK-MEL-2 melanoma)?
A: 16.4 µM

Q: What about the TGI (SK-MEL-2 melanoma) of the same compound?
A: > 50 µM

Q: And the GI50 (DU-145 prostate)?
A: 5.04 µM

Q: And the TGI (DU-145 prostate)?
A: 14.4 µM

Q: And the GI50 (OVCAR-5 ovarian)?
A: 8.57 µM

Q: What about the TGI (OVCAR-5 ovarian) of the same compound?
A: 19.8 µM

Q: And the GI50 (SF-539 CNS)?
A: 8.28 µM

Q: And the TGI (SF-539 CNS)?
A: 17.6 µM

Q: And the GI50 (HL-60(TB) leukemia)?
A: 9.96 µM

Q: What about the TGI (HL-60(TB) leukemia) of the same compound?
A: 19 µM

Q: What about the GI50 (OVCAR-3 ovarian) of the same compound?
A: 15.4 µM

Q: What about the TGI (OVCAR-3 ovarian) of the same compound?
A: 32 µM

Q: And the GI50 (HS 578T breast)?
A: 11.1 µM

Q: What about the TGI (HS 578T breast) of the same compound?
A: 25.1 µM

Q: And the GI50 (HT29 colon)?
A: 13.2 µM

Q: And the TGI (HT29 colon)?
A: > 50 µM

Q: And the GI50 (EKVX NSCLC)?
A: 0.104 µM

Q: And the TGI (EKVX NSCLC)?
A: 7.38 µM

Q: And the GI50 (IGROV1 ovarian)?
A: 17.5 µM

Q: And the TGI (IGROV1 ovarian)?
A: > 50 µM

Q: What about the GI50 (A549 NSCLC) of the same compound?
A: 10.9 µM

Q: And the TGI (A549 NSCLC)?
A: 21.6 µM

Q: What about the GI50 (TK-10 renal) of the same compound?
A: 11.7 µM

Q: And the TGI (TK-10 renal)?
A: 24.3 µM
